“And” between values parts separate entries of the source, which are not always exact repeats. Equal values may be shown once. Where a name gives a salt, the structure may show the parent alone. Read-outs that look alike come from different tables or passages of the source.
Key:
[1] = Pharmacokinetics after single oral administration to male Wistar rat; type: in vivo
Experimental: The pharmacokinetics of Example 1 and 2 were tested using the following protocol:
Male Wistar rats weighing 250 to 300 g (±20) supplied by Harlan were used. Water and food was available ad libitum throughout the study.
Administration and Sample Collection
Two rats (R1 and R2) were used in the pharmacokinetic oral studies.
A single dose of tested compound was administered by oral gavage [10 mg/kg as free base (Example 0)] in 0.5% hydroxypropyl methylcellulose (1 mg/ml). From each rat, serial blood samples were collected at 15 and 30 min, 1, 2, 3, 5, 7 and 24 h.
Blood was collected from the saphenous veins into heparinized tubes. Plasma was obtained by blood centrifugation at 4° C. and 2280×g for 10 min and kept at −80° C. until analysis.
Tested compound concentration in plasma samples was determined by least-squares linear regression using a ten-point calibration curve. The calibration curve was prepared in blank plasma from a working solution of 1 mg/ml in DMSO.
Samples were thawed at room temperature on the day of analysis. After plasma protein precipitation of samples and calibration standards with acetonitrile (1:4.3; v/v), the mixture was vortexed and centrifuged (4° C. and 16090×g for 10 min).
Tested compound plasma concentrations were determined by high performance liquid chromatography-triple quadrupole mass spectrometry (HPLC-MS/MS) through the following method:
Column: Atlantis® T3 column (2.1×100 mm, 3 μm) (Waters).
Mobile phase: A: 0.0155% Formic water • B: 0.0155% Formic Acetonitrile
Autosampler wash: Solvent 1:Acetonitrile • Solvent 2: 5% Acetonitrile+95% Water
Standard pharmacokinetic parameters, such as area under the curve (AUC), peak plasma concentration (Cmax), time to peak concentration (tmax), oral bioavailability (F), total plasma clearance (Cl), volume of distribution at steady-state (Vss), mean residence time (MRT) and terminal half-life (t1/2), were determined by non-compartmental analysis of the plasma concentration-time curves (Phoenix v. 6.2.1.51, Pharsight, C A).

[2] = Thermodynamic solubility at pH 7.4; type: physicochemical; conditions: for solubility thermodynamic at 24 h: phosphate buffer, 25 °C, pH 7.4, aqueous buffer, thermodynamic from solid
Experimental: General protocol for thermodynamic solubility at pH 7.4 and pH 2 are described. • A) Thermodynamic Solubility at pH 7.4
Phosphate buffer at pH 7.4 (25 mM) was prepared as follows:
A solution 25 mM of Na2HPO4.12H2O (for 1 L of water, weight 8.96 g) was prepared
A solution 25 mM de KH2PO4 (for 1 L of water weight 3.4 g) was prepared.
Disodium phosphate solution (812 mL) and potassium phosphate (182 mL) solution were mixed and pH checked to be 7.4.
Equipment • Precision analytical balance Mettler Toledo AT20. • Analytical balance Mettler Toledo PJ300. • Liquid chromatograph Waters Alliance 2695. • Stirrer Thermomixer Control of Eppendorf a 25° C. y 1250 rpm • pHmeter with combined semi-micro electrode.
Around 4 mg of compound in an HPLC vial (by duplicate) was dissolved in 1 mL of buffer solution. After stirring in Thermomixer Comfort system for 24 hours at 25° C., in order to achieve thermodynamic equilibrium, solution was centrifuged at 3000 rpm for 15 minutes.
The resulting upper layer was collected with a glass pipette and transferred to the HPLC vials in order to inject them (10 μL) directly to the HPLC instrument.
Standards were made in methanol to ensure overall compound solubility. Preparation of standard calibrators is illustrated below:
Sol.A: 4 mg in 1 mL methanol (4000 μg/mL)
Sol.B: 0.5 mL Sol.A to 5 mL with methanol (400 μg/mL)
Sol.C: 1 mL Sol.B to 10 mL with methanol (40 μg/mL)
Sol.D: 5 mL […] to 50 mL with methanol (4 μg/mL)
Sol.E: 4 mL Sol.D to 10 mL with methanol (1.6 μg/mL)
Calibration curve was created through 10 μL injection of standards, beginning with the more diluted standard. Blanks were also injected, for checking the absence of contamination.
10 μl of test substance were injected, by duplicate, and the average peak area interpolated in the calibration curve (see Tables Examples below).
Chromatographic Conditions • Column: XBridge C18 (or similar) 2.5 μm 4.6×50 mm • Temperature: 35° C. • Mobile phase: ACN/ammonium bicarbonate 10 mM. • Gradient: 0-3.5 min: from 15% CAN to 95% CAN • 3.5-5 min: 95% ACN • 5-6 min: 95 a 15% ACN • 6-8 min: 15% ACN • Flow: 1.5 mL/min • Detection: around the maximum UV wavelength. • B) Thermodynamic Solubility at pH 2

[3] = mean of 2 rats, 10 mg/kg oral, hydrochloride, 10 mg/kg

CC(=O)N1CCN(CCOCc2ccn(-c3ccc(F)c(F)c3)n2)CC1 [Example 1, hydrochloride]
F ([1]; animal 1, 10 mg/kg oral, mean AUC after i.v. administration used for calculation, hydrochloride): 66% | F ([1]; animal 2, 10 mg/kg oral, mean AUC after i.v. administration used for calculation, hydrochloride): 53% | Vd ([1]; male, Wistar, plasma, rat, total body water volume 0.6 l/kg, read-out: volume of distribution): 1.2 L/kg | bioavailability ([1]; male, Wistar, rat, plasma, oral, 10 mg/kg, mean of 2 rats, 10 mg/kg oral, mean AUC after i.v. administration used for calculation, read-out: F (oral bioavailability)): 60% | AUC ([1]; male, Wistar, rat, plasma, po, 10 mg/kg, animal 1, 10 mg/kg oral, read-out: AUC): 2950 ng·h/mL | Cmax ([1]; male, Wistar, rat, plasma, po, 10 mg/kg, animal 1, 10 mg/kg oral, read-out: Cmax): 1.31 µg/mL | half-life ([1]; male, Wistar, rat, plasma, po, 10 mg/kg, animal 1, 10 mg/kg oral, read-out: t1/2 (converted)): 54 min | tmax ([1]; male, Wistar, rat, plasma, po, 10 mg/kg, animal 1, 10 mg/kg oral, read-out: tmax): 15 min | AUC ([1]; male, Wistar, rat, plasma, po, 10 mg/kg, animal 2, 10 mg/kg oral, read-out: AUC): 2340 ng·h/mL | Cmax ([1]; male, Wistar, rat, plasma, po, 10 mg/kg, animal 2, 10 mg/kg oral, read-out: Cmax): 1.05 µg/mL | half-life ([1]; male, Wistar, rat, plasma, po, 10 mg/kg, animal 2, 10 mg/kg oral, read-out: t1/2 (converted)): 54 min | tmax ([1]; male, Wistar, rat, plasma, po, 10 mg/kg, animal 2, 10 mg/kg oral, read-out: tmax): 60 min | AUC ([1]; male, Wistar, rat, plasma, po, 10 mg/kg, mean of 2 rats, 10 mg/kg oral, read-out: AUC): ~2600 ng·h/mL | Cmax ([1]; male, Wistar, rat, plasma, po, 10 mg/kg, mean of 2 rats, 10 mg/kg oral, read-out: Cmax (peak plasma concentration)): ~1 µg/mL | half-life ([1]; male, Wistar, rat, plasma, po, 10 mg/kg, mean of 2 rats, 10 mg/kg oral, read-out: t1/2 (terminal half-life)): < 60 min | tmax ([1]; male, Wistar, rat, plasma, po, 10 mg/kg, mean of 2 rats, 10 mg/kg oral, read-out: tmax): 36 min | concentration at 0.5 h ([1]; male, Wistar, rat, plasma, po, 10 mg/kg, rat R1, 0.5 h, 10 mg/kg oral): 1.3 µg/mL | concentration at 1 h ([1]; male, Wistar, rat, plasma, po, 10 mg/kg, rat R1, 1 h, 10 mg/kg oral): 1.07 µg/mL | concentration at 5 h ([1]; male, Wistar, rat, plasma, po, 10 mg/kg, rat R1, 5 h, 10 mg/kg oral): 0.0496 µg/mL | concentration at 0.5 h ([1]; male, Wistar, rat, plasma, po, 10 mg/kg, rat R2, 0.5 h, 10 mg/kg oral): 0.742 µg/mL | concentration at 1 h ([1]; male, Wistar, rat, plasma, po, 10 mg/kg, rat R2, 1 h, 10 mg/kg oral): 1.05 µg/mL | concentration at 5 h ([1]; male, Wistar, rat, plasma, po, 10 mg/kg, rat R2, 5 h, 10 mg/kg oral): 0.0469 µg/mL | concentration at 7 h ([1]; male, Wistar, rat, plasma, po, 10 mg/kg, rat R2, 7 h, 10 mg/kg oral): 0.0115 µg/mL | AUC [1, 3]: 2645 ng·h/mL | t1/2 (terminal half-life) [1, 3]: 54 min | tmax [1, 3]: 37.8 min | plasma clearance ([1]; rat): 70 % liver blood flow | Plasma concentration ([1]; rat R1, 2 h, 10 mg/kg oral, hydrochloride, 10 mg/kg): 0.7228 µg/mL | Plasma concentration ([1]; rat R1, 3 h, 10 mg/kg oral, hydrochloride, 10 mg/kg): 0.3231 µg/mL | Plasma concentration ([1]; rat R1, 7 h, 10 mg/kg oral, hydrochloride, 10 mg/kg): 0.0128 µg/mL | Plasma concentration ([1]; rat R1, 24 h, 10 mg/kg oral, LLOQ 2 ng/ml): <lloq | Plasma concentration ([1]; rat R2, 2 h, 10 mg/kg oral, hydrochloride, 10 mg/kg): 0.6739 µg/mL | Plasma concentration ([1]; rat R2, 3 h, 10 mg/kg oral, hydrochloride, 10 mg/kg): 0.2331 µg/mL | Plasma concentration ([1]; rat R2, 24 h, 10 mg/kg oral, LLOQ 2 ng/ml): <lloq | Conc. ([2]; pH 7.4, single HPLC injections of duplicate vials, hydrochloride): 3928 µg/mL and 3817.1 µg/mL and 4301.5 µg/mL and 4345.3 µg/mL | solubility thermodynamic at 24 h ([2]; pH 7.4, mean of 4 injections, read-out: Conc. Mean): 4100 µg/mL | solubility thermodynamic at 24 h ([2]; pH=7.4, 24 hours at 25° C., completely dissolved, read-out: thermodynamic solubility): > 4000 µg/mL
